Measurements from PMC7947296, “p-Terphenyls From Aspergillus sp. GZWMJZ-055: Identification, Derivation, Antioxidant and α-Glycosidase Inhibitory Activities” (Frontiers in Microbiology, 2021).
Values joined by “and” are separate entries in the source; they are usually repeats but may differ in a detail not shown here. Equal values may be shown once.

Legend:
[1] = DPPH radical-scavenging assay; settings: DPPH 0.15 mM in MeOH, 30-min incubation in the dark at rt, absorbance 517 nm
Procedure: The anti-oxidative activity of compounds was also evaluated by 2,2-diphenyl-1-picrylhydrazyl (DPPH) radical-scavenging assay ([Wang et al., 2007]). The experiment was divided into the following five groups, blank (methanol, MeOH), sample (mix compound and DPPH solution), background (pure compound solution), negative (pure DPPH solution), and positive [mix vitamin C (VC) and DPPH solution] controls. DPPH (0.15 mM), compounds (1–100 μM), and VC (1–100 μM) that was regarded as a compound sample in the following procedures all were dissolved in MeOH. Each 160 μL of MeOH was placed in negative control and blank groups, while each 160 μL of testing compounds or VC was placed in sample and background groups. Then, MeOH (each 40 μL) was, respectively, added to blank and background groups, while 40 μL of DPPH was, respectively, added to negative, positive, and sample controls. After 30-min incubation in the dark at rt, the decrease in DPPH radical concentration was monitored by measuring the absorbance at λ 517 nm with a microplate reader (Multiskan Spectrum, Thermo Scientific Varioskan LUX). The DPPH radical-scavenging rate was calculated as:
Scavenging rate (%)=[(Anegative-Ablank)-(Asample-Abackground)]/(Anegative-Ablank)×100%.

[2] = Oxygen radical absorbance capacity (ORAC) assay; settings: trolox equivalents; tested at 6.25 μM (compounds 4–7), 12.5 μM (1–3, 8–16), 25.0 μM (17–25); PBS pH 7.4, 37°C
Procedure: The anti-oxidative activity of compounds was evaluated by ORAC assay ([Huang et al., 2002]) that was carried out mainly by using 2,2′-azobis(2-amidinopropane) dihydrochloride (AAPH, 153.0 μM), fluorescein (FL, 81.6 nM), testing compounds, and trolox as a positive control, all of which were dissolved in phosphate buffer solution (PBS, 75 mM, pH 7.4). The concentrations were 6.25 μM for compounds 4–7 and trolox, 12.5 μM for compounds 1–3, 8–16 and trolox, and 25.0 μM for compounds 17–25 and trolox, respectively (Supplementary Figure 36). In short, each 25 μL of testing compounds, blank (PBS), negative (PBS) and trolox, and 150 μL of FL were added in each well and incubated at 37°C for 10 min. Each 25 μL of AAPH was then added to the testing compounds, blank and trolox groups, and 25 μL of PBS was added to the negative group. Fluorescence intensity of each well was measured one time every 1 min for 90 cycles using a Fluoroskan Ascent FL plate-reader (Thermo Scientific Varioskan LUX) at excitation of λ 485 nm and emission of λ 530 nm. The relative fluorescence intensity f was equaled to the ratio of the absolute fluorescence reading to the initial fluorescence reading, and the net area under curve (AUC) was obtained by subtracting the AUC of the blank from that of the compound. The AUC was calculated as 0.5 + f1 +… fi +… + f89 + 0.5 × f90, in which fi means the ratio of fluorescence reading at time i to the initial fluorescence reading. The final ORAC values were calculated as micromole of trolox equivalents per micromole of the compound (μmole TE/μmole) by using a regression equation between the trolox concentration and the net area under the FL decay curve. That is, the relative ORAC value = (AUCcompound – AUCblank)/(AUCtrolox – AUCblank).

[3] = molecular target: α-glucosidase from Saccharomyces cerevisiae (Saccharomyces cerevisiae, UniProt P53341); assay: biochemical;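 note: 15 min preincubation at 37 °C, then 30 min with PNPG substrate at 37 °C, inhibition computed from absorbance versus drug-free blank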
Sequence of α-glucosidase from Saccharomyces cerevisiae (P53341 whole entry): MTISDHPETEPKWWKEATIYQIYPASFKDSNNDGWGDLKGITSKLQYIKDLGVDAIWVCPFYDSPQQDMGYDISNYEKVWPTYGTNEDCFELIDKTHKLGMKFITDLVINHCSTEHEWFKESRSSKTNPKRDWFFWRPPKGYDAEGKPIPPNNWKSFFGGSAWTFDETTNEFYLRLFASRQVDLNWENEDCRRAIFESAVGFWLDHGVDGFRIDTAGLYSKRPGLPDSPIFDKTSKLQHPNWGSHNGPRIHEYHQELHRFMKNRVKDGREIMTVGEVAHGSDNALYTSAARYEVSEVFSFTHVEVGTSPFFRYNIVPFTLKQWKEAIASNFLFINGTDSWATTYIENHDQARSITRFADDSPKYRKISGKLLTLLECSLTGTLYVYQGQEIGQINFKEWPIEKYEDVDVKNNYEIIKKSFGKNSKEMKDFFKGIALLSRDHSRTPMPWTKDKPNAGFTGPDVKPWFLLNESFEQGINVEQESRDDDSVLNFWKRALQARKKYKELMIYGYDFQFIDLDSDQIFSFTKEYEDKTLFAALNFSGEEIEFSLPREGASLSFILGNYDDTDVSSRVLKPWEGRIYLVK
Procedure: After incubation for 15 min at 37°C, 20 μL of PNPG solution was added to each well of testing groups and further incubated at 37°C for 30 min. Finally, 80 μL of Na2CO3 solution was added to each well to stop the reaction and the absorbance was measured by a microplate reader (Multiskan Spectrum, Thermo Scientific Varioskan LUX) at λ 405 nm.

[4] = Cytotoxic effects on caco-2 cells by CTG assay; type: cell-based; settings: human, 72 h incubation, read-out: inhibitory rate (cytotoxicity to caco-2 cells)
Procedure: The cytotoxic effects on the coca-2 cells were evaluated by the CTG assay ([Elisia and Kitts, 2008]; [Wang et al., 2019]). Briefly, coca-2 cells were seeded in 96-well plates at a density of 2 × 10^3 cells/well and treated with the final concentration of 1.0 μM of the compounds. After 72 h incubation, 100 μL of CTG solution (Promega) was added into each well. The luminescence value was tested by using a microplate reader (BioTek Synergy H1) after staying at rt for 10 min.

Row | SMILES | IC50 [1] | ORAC (μMole TE/μMole) [2] | IC50 [3] | inhibition at 72 h, 1 µM [4]
1 | COc1cc(-c2c(OC)cc(-c3ccccc3)c(OC)c2O)ccc1OCC=C(C)C [Compound 1, 3-O-methyl-4″-deoxyterprenin] | > 100 µM | 1.0 ± 0.04 μMole TE/μMole | > 500 µM | –
2 | COc1cc(-c2ccc(O)cc2)c(OC)c(O)c1-c1ccccc1 [Compound 2, 4-deoxyterphenyllin] | > 100 µM | 1.2 ± 0.09 μMole TE/μMole | 239 ± 5.9 µM | –
3 | COc1cc(-c2ccccc2)c(OC)c(OC)c1-c1ccc(O)cc1 [Compound 3, 4″-deoxy-2′-methoxyterphenyllin] | > 100 µM | 2.1 ± 0.5 μMole TE/μMole | > 500 µM | –
4 | COc1cc(-c2ccc(O)cc2)c(O)c(O)c1-c1ccc(O)cc1 [Compound 4, 5′-methoxy-[1,1′:4′,1″-terphenyl]-2′,3′,4,4″-tetraol] | 1.7 ± 0.02 µM | 6.8 μMole TE/μMole and 6.8 ± 0.05 μMole TE/μMole | 5.9 ± 0.6 µM | –
5 | COc1cc(-c2ccc(O)cc2)c(OC)c(O)c1-c1ccc(O)cc1 [Compound 5, terphenyllin] | 10.9 ± 0.3 µM | 6.0 μMole TE/μMole and 6.0 ± 0.09 μMole TE/μMole | 2.8 ± 0.2 µM | 0.4%
6 | COc1cc(-c2ccc(O)cc2)c(OC)c(O)c1-c1ccc(O)c(O)c1 [Compound 6, 3-hydroxyterphyllin] | 1.4 ± 0.01 µM | 5.7 μMole TE/μMole and 5.7 ± 0.3 μMole TE/μMole | 10.9 ± 1.3 µM | 0.2%
7 | COc1cc(-c2ccc(O)c(O)c2)c(OC)c(O)c1-c1ccc(O)c(O)c1 [Compound 7, 3,3″-dihydroxyterphyllin] | 1.1 ± 0.03 µM | 4.5 μMole TE/μMole and 4.5 ± 0.4 μMole TE/μMole | 18.3 ± 0.9 µM | 0.5%
8 | COc1cc(-c2ccccc2)c(OC)c(O)c1-c1ccc(O)cc1 [Compound 8, 4″-deoxyterphenyllin] | 57.8 ± 0.8 µM | 0.5 ± 0.01 μMole TE/μMole | 130 ± 3.5 µM | –
9 | COc1cc(-c2ccccc2)c(OC)c(O)c1-c1ccc(O)c(O)c1 [Compound 9, 4″-deoxy-3-hydroxyterphenyllin] | 1.9 ± 0.04 µM | 0.5 ± 0.06 μMole TE/μMole | 464 ± 23.6 µM | –
10 | COc1cc(-c2ccc(O)cc2)c(OC)c(OC)c1-c1ccc(O)cc1 [Compound 10, 3′-O-methylterphenyllin] | > 100 µM | 0.5 ± 0.03 μMole TE/μMole | > 500 µM | –
11 | COc1cc(-c2ccccc2)c(OC)c(O)c1-c1ccc(O)c(CC=C(C)C)c1 [Compound 11, 4″-deoxyprenylterphenyllin] | 1.6 ± 0.01 µM | 1.2 ± 0.5 μMole TE/μMole | 34.4 ± 1.1 µM | –
12 | COc1cc(-c2ccc(O)c(CC=C(C)C)c2)c(OC)c(O)c1-c1ccc(O)c(O)c1 [Compound 12, prenylterphenyllin A] | 1.6 ± 0.02 µM | 1.4 ± 0.01 μMole TE/μMole | 64.4 ± 1.2 µM | –
13 | COc1cc(-c2c(OC)cc(-c3ccc(O)cc3)c(OC)c2O)ccc1OCC=C(C)C [Compound 13, 3-methoxyterprenin] | > 100 µM | 0.4 ± 0.07 μMole TE/μMole | 152 ± 9.6 µM | –
14 | COc1c(-c2ccccc2)cc(OC)c2c1oc1cc(O)c(O)cc12 [Compound 14, 4″-deoxycandidusin A] | 4 ± 0.2 µM | 0.4 ± 0.06 μMole TE/μMole | 128 ± 2.3 µM | –
15 | COc1c(-c2ccc(O)cc2)cc(OC)c2c1oc1cc(O)c(O)cc12 [Compound 15, candidusin A] | 3.6 ± 0.06 µM | 2.1 ± 0.06 μMole TE/μMole | 13.1 ± 0.2 µM | 20.5%
16 | COc1c(-c2ccc(O)c(O)c2)cc(OC)c2c1oc1cc(O)c(O)cc12 [Compound 16, candidusin B] | 3.2 ± 0.1 µM | 2.0 ± 0.06 μMole TE/μMole | 7.9 ± 0.3 µM | 2.7%
17 | Oc1ccc(-c2cc(O)c(-c3ccc(O)cc3)c(O)c2O)cc1 [Compound 17] | 5.3 ± 0.06 µM | 4.8 μMole TE/μMole and 4.8 ± 0.3 μMole TE/μMole | 25.1 ± 0.7 µM | –
18 | Oc1ccc(-c2cc(O)c(-c3ccc(O)c(O)c3)c(O)c2O)cc1 [Compound 18] | 3.7 ± 0.07 µM | 3.7 ± 0.1 μMole TE/μMole | 25 ± 0.8 µM | –
19 | Oc1ccc(-c2cc(O)c(-c3ccc(O)c(O)c3)c(O)c2O)cc1O [Compound 19] | 1.8 ± 0.04 µM | 2.6 ± 0.1 μMole TE/μMole | 19.4 ± 0.1 µM | –
20 | O=C1C=C(c2ccc(O)cc2)C(=O)C(O)=C1c1ccc(O)cc1 [Compound 20] | 5.9 ± 0.08 µM | 6.1 μMole TE/μMole and 6.1 ± 0.2 μMole TE/μMole | 8.9 ± 0.4 µM | 0.4%
21 | O=C1C=C(c2ccc(O)cc2)C(=O)C(O)=C1c1ccc(O)c(O)c1 [Compound 21] | 1.6 ± 0.04 µM | 3.9 ± 0.1 μMole TE/μMole | 4 ± 0.08 µM | 1.2%
22 | O=C1C=C(c2ccc(O)c(O)c2)C(=O)C(O)=C1c1ccc(O)c(O)c1 [Compound 22] | 1.7 ± 0.02 µM | 2.8 ± 0.3 μMole TE/μMole | 10.1 ± 0.1 µM | –
23 | COc1cc(-c2ccc(OC(C)=O)cc2)c(OC)c(OC(C)=O)c1-c1ccc(OC(C)=O)cc1 [Compound 23] | > 100 µM | 0.1 ± 0.01 μMole TE/μMole | > 500 µM | –
24 | COc1cc(-c2ccc(OC(C)=O)cc2)c(OC)c(OC(C)=O)c1-c1ccc(OC(C)=O)c(OC(C)=O)c1 [Compound 24] | 37.8 ± 0.1 µM | 0.8 ± 0.07 μMole TE/μMole | > 500 µM | –
25 | COc1cc(-c2ccc(OC(C)=O)c(OC(C)=O)c2)c(OC)c(OC(C)=O)c1-c1ccc(OC(C)=O)c(OC(C)=O)c1 [Compound 25] | 11 ± 0.1 µM | 1.7 ± 0.07 μMole TE/μMole | > 500 µM | –
26 | O=C1O[C@H]([C@@H](O)CO)C(O)=C1O [VC, vitamin C, reference compound] | 2.8 ± 0.03 µM | – | – | –
